Experimental findings from patent US20230059136A1, “THE COMPOUNDS AND COMPOSITIONS FOR TREATING CONDITIONS ASSOCIATED WITH NLRP ACTIVITY” (Novartis AG, priority 2018, published 2023) are described below.

The subject of the test is IL-1β production in PMA-differentiated THP-1 cells. The experiment in a line: IL-1β production in PMA-differentiated THP-1 cells stimulated with gramicidin (hTHP-1 assay containing 2% fetal bovine serum). Format: cell-based, human. As to conditions: Table B1; 2% fetal bovine serum; class symbols; read-out: hTHP-1 IC50 (Average IC50 of compounds in hTHP-1 assay). On the procedure: Procedure 1: IL-1β Production in PMA-Differentiated THP-1 Cells Stimulated with Gramicidin.
THP-1 cells were purchased from the American Type Culture Collection and sub-cultured according to instructions from the supplier. Cells were cultured in complete RPMI 1640 (containing 10% heat inactivated FBS, penicillin (100 units/ml) and streptomycin (100 μg/ml)), and maintained in log phase prior to experimental setup. Prior to the experiment, compounds were dissolved in dimethyl sulfoxide (DMSO) to generate a 30 mM stock. The compound stock was first pre-diluted in DMSO to 3, 0.34, 0.042 and 0.0083 mM intermediate concentrations and subsequently spotted using Echo550 liquid handler into an empty 384-well assay plate to achieve desired final concentration (e.g. 100, 33, 11, 3.7, 1.2, 0.41, 0.14, 0.046, 0.015, 0.0051, 0.0017 μM). DMSO was backfilled in the plate to achieve a final DMSO assay concentration of 0.37%. The plate was then sealed and stored at room temperature until required.
THP-1 cells were treated with PMA (Phorbol 12-myristate 13-acetate) (20 ng/ml) for 16-18 hours. On the day of the experiment the media was removed and adherent cells were detached with trypsin for 5 minutes. Cells were then harvested, washed with complete RPMI 1640, spun down, and resuspended in RPMI 1640 (containing 2% heat inactivated FBS, penicillin (100 units/ml) and streptomycin (100 μg/ml). The cells were plated in the 384-well assay plate containing the spotted compounds at a density of 50,000 cells/well (final assay volume 50 μl). Cells were incubated with compounds for 1 hour and then stimulated with gramicidin (5 μM) (Enzo) for 2 hours. Plates were then centrifuged at 340 g for 5 min. Cell free supernatant (40 μL) was collected using a 96-channel PlateMaster (Gilson) and the production of IL-1β was evaluated by HTRF (cisbio). The plates were incubated for 18 h at 4° C. and read using the preset HTRF program (donor emission at 620 nm, acceptor emission at 668 nm) of the SpectraMax i3x spectrophotometer (Molecular Devices, software SoftMax 6). A vehicle only control and a dose titration of CRID3 (100-0.0017 μM) were run concurrently with each experiment.
Procedure 2: IL-1β Production in PMA-Differentiated THP-1 Cells Stimulated with Gramicidin.
THP-1 cells were purchased from the American Type Culture Collection and sub-cultured according to instructions from the supplier. Prior to experiments, cells were cultured in complete RPMI 1640 (containing 10% heat inactivated FBS, penicillin (100 units/ml) and streptomycin (100 μg/ml)), and maintained in log phase prior to experimental setup. Prior to the experiment THP-1 were treated with PMA (Phorbol 12-myristate 13-acetate) (20 ng/ml) for 16-18 hours. Compounds were dissolved in dimethyl sulfoxide (DMSO) to generate a 30 mM stock. On the day of the experiment the media was removed and adherent cells were detached with trypsin for 5 minutes. Cells were then harvested, washed with complete RPMI 1640, spun down, resuspended in RPMI 1640 (containing 2% heat inactivated FBS, penicillin (100 units/ml) and streptomycin (100 μg/ml). The cells were plated in a 384-well plate at a density of 50,000 cells/well (final assay volume 50 μl). Compounds were first dissolved in assay medium to obtain a 5× top concentration of 500 μM. 10 step dilutions (1:3) were then undertaken in assay medium containing 1.67% DMSO. 5× compound solutions were added to the culture medium to achieve desired final concentration (e.g. 100, 33, 11, 3.7, 1.2, 0.41, 0.14, 0.046, 0.015, 0.0051, 0.0017 μM). Final DMSO concentration was at 0.37%. Cells were incubated with compounds for 1 hour and then stimulated with gramicidin (5 μM) (Enzo) for 2 hours. Plates were then centrifuged at 340 g for 5 min. Cell free supernatant (40 μL) was collected using a 96-channel PlateMaster (Gilson) and the production of IL-1β was evaluated by HTRF (cisbio). A vehicle only control and a dose titration of CRID3 (100-0.0017 μM) were run concurrently with each experiment. […]
By IC50 is commonly meant the midpoint of a concentration-inhibition curve. As for `CCc1cc(OC(F)F)cc(C(C)C)c1CC(=O)N=S(N)(=O)c1sc(C(C)(C)O)cc1F` (single isomer, unassigned) [Example 79, (R)- or (S)-2-(4-(difluoromethoxy)-2-ethyl-6-isopropylphenyl)-N-(3-fluoro-5-(2-hydroxypropan-2-yl)thiophen-2-ylsulfonimidoyl)acetamide], the half-inhibitory concentration (IC50) is 5000 to 30000 nM.
As to `CC(C)c1cc(C(F)F)cc(C(C)C)c1CC(=O)N=S(N)(=O)c1sc(C(C)(C)O)cc1F` (single isomer, unassigned) [Example 80, (S)- or (R)-2-(4-(difIuoromethyl)-2,6-diisopropylphenyl)-N-(3-fluoro-5-(2-hydroxypropan-2-yl)thiophen-2-ylsulfonimidoyl)acetamide], the half-inhibitory concentration (IC50) lay within 8 to 40 nM.
As to `CC(C)c1cc(C(F)F)cc(C(C)C)c1CC(=O)N=S(N)(=O)c1sc(C(C)(C)O)cc1F` (single isomer, unassigned) [Example 81, (R)- or (S)-2-(4-(difluoromethyl)-2,6-diisopropylphenyl)-N-(3-fluoro-5-(2-hydroxypropan-2-yl)thiophen-2-ylsulfonimidoyl)acetamide], the half-maximal inhibitory concentration (IC50) was 200 to 1000 nM.
Turning to `CC(C)c1cc(C#N)cc(C(C)C)c1CC(=O)N=S(N)(=O)c1ncc(C(C)(C)O)s1` (single isomer, unassigned) [Example 82, (R)- or (S)-2-(4-cyano-2,6-diisopropylphenyl)-N-(5-(2-hydroxypropan-2-yl)thiazol-2-ylsulfonimidoyl)acetamide], the IC50 lay within 5000 to 30000 nM.
Next, `CC(C)c1cc(C#N)cc(C(C)C)c1CC(=O)N=S(N)(=O)c1ncc(C(C)(C)O)s1` (single isomer, unassigned) [Example 83, (S)- or (R)-2-(4-cyano-2,6-diisopropylphenyl)-N-(5-(2-hydroxypropan-2-yl)thiazol-2-ylsulfonimidoyl)acetamide]: 40 to 200 nM; `Cc1nc(C(C)(C)O)sc1S(N)(=O)=NC(=O)Cc1c(C(C)C)cc(OC(F)F)cc1C(C)C` (single isomer, unassigned) [Example 84, (S)- or (R)-2-(4-(difluoromethoxy)-2,6-diisopropylphenyl)-N-(2-(2-hydroxypropan-2-yl)-4-methylthiazol-5-ylsulfonimidoyl)acetamide]: 40 to 200 nM.
Regarding `Cc1nc(C(C)(C)O)sc1S(N)(=O)=NC(=O)Cc1c(C(C)C)cc(OC(F)F)cc1C(C)C` (single isomer, unassigned) [Example 85, (R)- or (S)-2-(4-(difluoromethoxy)-2,6-diisopropylphenyl)-N-(2-(2-hydroxypropan-2-yl)-4-methylthiazol-5-ylsulfonimidoyl)acetamide], the IC50 lay within 5000 to 30000 nM.
Next, `CC(C)c1cc(C(F)F)cc(C(C)C)c1CC(=O)N=S(N)(=O)c1ccc(C(C)(C)O)cc1F` (single isomer, unassigned) [Example 86, (S)- or (R)-2-(4-(difluoromethyl)-2,6-diisopropylphenyl)-N-(2-fluoro-4-(2-hydroxypropan-2-yl)phenylsulfonimidoyl) acetamide]: 1000 to 5000 nM.
As to `CC(C)c1cc(C(F)F)cc(C(C)C)c1CC(=O)N=S(N)(=O)c1ccc(C(C)(C)O)cc1F` (single isomer, unassigned) [Example 87, (R)- or (S)-2-(4-(difluoromethyl)-2,6-diisopropylphenyl)-N-(2-fluoro-4-(2-hydroxypropan-2-yl)phenylsulfonimidoyl) acetamide], the IC50 is 40 to 200 nM.
Turning to `COCc1cc(C(C)C)c(CC(=O)N=S(N)(=O)c2cc(C(C)(C)O)cs2)c(C(C)C)c1` (single isomer, unassigned) [Example 157, (R) or (S)-N-(amino(4-(2-hydroxypropan-2-yl)thiophen-2-yl)(oxo)-λ^6-sulfaneylidene)-2-(2,6-diisopropyl-4-(methoxymethyl)phenyl)acetamide], the 50% inhibitory concentration (IC50) was in the range of 8 to 40 nM.
Turning to `COCc1cc(C(C)C)c(CC(=O)N=S(N)(=O)c2cc(C(C)(C)O)cs2)c(C(C)C)c1` (single isomer, unassigned) [Example 158, (S) or (R)-N-(amino(4-(2-hydroxypropan-2-yl)thiophen-2-yl)(oxo)-λ^6-sulfaneylidene)-2-(2,6-diisopropyl-4-(methoxymethyl)phenyl)acetamide], the half-maximal inhibitory concentration (IC50) is 1000 to 5000 nM.
Under `CC(C)c1ccc(F)c(C(C)C)c1CC(=O)N=S(N)(=O)c1cc(C(C)(C)O)cs1` (single isomer, unassigned) [Example 159, (R) or (S)-N-(amino(4-(2-hydroxypropan-2-yl)thiophen-2-yl)(oxo)-λ^6-sulfaneylidene)-2-(3-fluoro-2,6-diisopropylphenyl) acetamide] stands 40 to 200 nM; under `CC(C)c1ccc(F)c(C(C)C)c1CC(=O)N=S(N)(=O)c1cc(C(C)(C)O)cs1` (single isomer, unassigned) [Example 160, (S) or (R)-N-(amino(4-(2-hydroxypropan-2-yl)thiophen-2-yl)(oxo)-λ^6-sulfaneylidene)-2-(3-fluoro-2,6-diisopropylphenyl) acetamide], 200 to 1000 nM; under `CC(C)c1ccc(F)c(C(C)C)c1CC(=O)N=S(N)(=O)c1cnc(C(C)(C)O)s1` (single isomer, unassigned) [Example 161, (R) or (S)-N-(amino(2-(2-hydroxypropan-2-yl)thiazol-5-yl)(oxo)-λ^6-sulfaneylidene)-2-(3-fluoro-2,6-diisopropylphenyl) acetamide], 40 to 200 nM.
Regarding `CC(C)c1ccc(F)c(C(C)C)c1CC(=O)N=S(N)(=O)c1cnc(C(C)(C)O)s1` (single isomer, unassigned) [Example 162, (S) or (R)-N-(amino(2-(2-hydroxypropan-2-yl)thiazol-5-yl)(oxo)-λ^6-sulfaneylidene)-2-(3-fluoro-2,6-diisopropylphenyl) acetamide], the half-inhibitory concentration (IC50) was in the range of 5000 to 30000 nM.
Under `CC(C)c1cc(-c2ccc3ccccc3c2)cc(C(C)C)c1CC(=O)N=S(N)(=O)c1cnc(C(C)(C)O)s1` (single isomer, unassigned) [Example 163, (R) or (S)-N-(amino(2-(2-hydroxypropan-2-yl)thiazol-5-yl)(oxo)-λ^6-sulfaneylidene)-2-(2,6-diisopropyl-4-(naphthalen-2-yl)phenyl) acetamide] stands 40 to 200 nM; under `CC(C)c1cc(-c2ccc3ccccc3c2)cc(C(C)C)c1CC(=O)N=S(N)(=O)c1cnc(C(C)(C)O)s1` (single isomer, unassigned) [Example 164, (S) or (R)-N-(amino(2-(2-hydroxypropan-2-yl)thiazol-5-yl)(oxo)-λ^6-sulfaneylidene)-2-(2,6-diisopropyl-4-(naphthalen-2-yl)phenyl) acetamide], 1000 to 5000 nM; under `CC(C)c1cc(-c2ccc3c(c2)OC(F)(F)O3)cc(C(C)C)c1CC(=O)N=S(N)(=O)c1ncc(C(C)(C)O)s1` (single isomer, unassigned) [Example 165, (S) or (R)-N-(amino(5-(2-hydroxypropan-2-yl)thiazol-2-yl)(oxo)-λ^6-sulfaneylidene)-2-(4-(2,2-difluorobenzo[d] [1,3]dioxol-5-yl)-2,6-diisopropylphenyl) acetamide], 1000 to 5000 nM.
